Experiments:
CYP2C9 = settings: 2019, cited from earlier work
cyp2b1 = tested on: cyp2b1; parameters: method as in Ma et al., 2015; settings: in rats; ref Ma et al., 2015; cited from earlier work
CYP2D6 = settings: cited from earlier work
[1] = tested on: cytochrome P450 (CYP) enzymes; parameters: method as in Dungo et al., 2013; settings: ref Dungo et al., 2013; cited from earlier work
[2] = Pharmacokinetics of probe substrates in rats with or without poziotinib pre-treatment; settings: for Cmax / CL/F / Vd/F: n = 6; for CL/F: CLz/F; for Vd/F: Vz/F
Experimental: Samples were analyzed by a UPLC-MS/MS system equipped with a triple quadrupole mass spectrometer (Waters Corp., Milford, MA, United States) and Acquity UPLC BEH C18 column (1.7 μm, 2.1 × 50 mm) at 40°C. The mobile phase consisted of acetonitrile (A) and 0.1% formic acid (B) with a linear gradient elution at 0.4 ml/min for 3 min.
Twelve male Sprague-Dawley rats (230 ± 20 g) were randomly divided into treated and control groups, with 6 in each group. […] The supernatant was mixed with 200 μL of acetonitrile and 20 μL of 0.5 μg/ml diazepam (IS), vortexed for 30 s, centrifuged at 13,000 rpm for 5 min, and the supernatant was injected into the UPLC-MS/MS system for analysis.
Pharmacokinetic parameters were calculated using DAS software (Version 3.2.8). SPSS software (version 16.0; SPSS Inc., Chicago, IL, United States) was used to analyze the significance of differences between the main pharmacokinetic parameters. p < 0.05 was considered statistically significant. GraphPad (version 8.0; GraphPad Software Inc., San Diego, CA, United States) was used to calculate IC50 and plot the plasma concentration-time curves and inhibition plots (type of inhibition, time- and concentration-dependence).

[3] = male, Sprague-Dawley, rat, in vivo, po, 10 mg/kg
[4] = male, Sprague-Dawley, rat, plasma, po, 10 mg/kg, Control group: oral probe cocktail only (10 mg/kg; tolbutamide 1 mg/kg), rats
[5] = male, Sprague-Dawley, rat, plasma, po, 10 mg/kg, Treated group: oral probe cocktail (10 mg/kg; tolbutamide 1 mg/kg) after 7 days oral poziotinib 5 mg/kg, rats
[6] = rats, poziotinib 5 mg/kg 7 days vs probes only

## C#Cc1cccc(Nc2ncnc3cc(OCCOC)c(OCCOC)cc23)c1 [Erlotinib]
CYP2C9; in human, ref Hiraide et al.
  effect on metabolism of warfarin, a CYP2C9 substrate: inhibit warfarin metabolism
cyp2b1
  effect on cyp2b1 activity: may inhibit

## COc1cc2ncnc(Nc3ccc(F)c(Cl)c3)c2cc1OCCCN1CCOCC1 [Gefitinib]
CYP2C9; ref Prommer, 2004, Hiraide et al.
  effect on CYP2C9: inhibit
CYP2D6; ref Prommer, 2004, Hiraide et al., 2019
  effect on CYP2D6: inhibit

## CN(C)C/C=C/C(=O)Nc1cc2c(Nc3ccc(F)c(Cl)c3)ncnc2cc1O[C@H]1CCOC1 [Afatinib]
[1]
  inhibition or induction of CYP enzymes: no inhibition or induction

## CCOc1ccc(NC(C)=O)cc1 [Phenacetin]
[2]; Control group: oral probe cocktail only (10 mg/kg; tolbutamide 1 mg/kg), rats
  Cmax: 2,869.22 ± 783.32 µg/L
[2]; [3]
  AUC(0-t): 6320 ng·h/mL
  MRT(0–t): 87.6 ± 13.2 min
  Tmax: 45 ± 16.2 min
  t1/2z: 33 ± 9 min
[2]; male, Sprague-Dawley, rat, in vivo, po, 10 mg/kg, MRT(0–t)
  MRT last: 84.6 ± 7.8 min
[2]; male, Sprague-Dawley, rat, in vivo, po, 10 mg/kg, MRT(0–∞)
  MRT inf: 87.6 ± 9 min
[2]; male, Sprague-Dawley, rat, in vivo, po, 10 mg/kg, Tmax
  Tmax: 32.4 ± 15 min
[2]; male, Sprague-Dawley, rat, in vivo, po, 10 mg/kg, t1/2z
  half-life: 48 ± 7.2 min
[2]; male, Sprague-Dawley, rat, plasma, po, 10 mg/kg
  AUC(0-t): 2770 ng·h/mL
[2]; [4]
  CL/F: 30.7 mL/min/kg
  Vd/F: 1.57 ± 0.9 L/kg
[2]; [5]
  CL/F: 66.5 mL/min/kg
  Vd/F: 4.77 ± 2.26 L/kg
[2]; male, Sprague-Dawley, rat, plasma, po, 10 mg/kg, Cmax, Treated group: oral probe cocktail (10 mg/kg; tolbutamide 1 mg/kg) after 7 days oral poziotinib 5 mg/kg, rats
  Cmax: 1490 ng/mL
[2]; [6]
  AUC (0–t) reduced by, treated vs control group: 56.08%
  AUC (0–∞) reduced by, treated vs control group: 55.81%
  CLz/F increased by, treated vs control group: 116.85%
  Cmax reduced by, treated vs control group: 48.06%
  Vz/F increased by, treated vs control group: 203.82%
  t1/2 increased by, treated vs control group: 45.45%

## COc1cc2ncnc(Nc3ccc(F)c(Cl)c3)c2cc1NC(=O)/C=C/CN1CCCCC1 [dacomitinib]
CYP2D6; ref Shirley, 2018
  effect on CY2D6: potent inhibitor

Source: article PMC7970697, “Inhibition and Induction by Poziotinib of Different Rat Cytochrome P450 Enzymes In Vivo and in an In Vitro Cocktail Method” (Frontiers in Pharmacology, 2021)
